For one assay, the system named is HCC827/ER cells. Kind of assay: Cell viability assay (CellTiter-Glo 2.0), erlotinib-resistant HCC827/ER cells. It counts as cell-based, human. The conditions noted are these: Homo sapiens, HCC827ER, read-out: Relative cell viability. An excerpt:
(§1) To explore c-MET and AXL mechanisms of EGFR TKI resistance, resistant cells of the EGFR TKI hypersensitive EGFR exon 19 mutant NSCLC cell line, HCC827 and PC9 were generated by exposing these cells to increasing concentrations of EGFR TKI for over 3 months.
(§2) Gefitinib-resistant cells were referred to as HCC827/GR. […] Osimertinib-resistant cells were referred to as HCC827/OR.
(In general: In ATP-based viability assays light output follows the ATP content of the culture.)

The next assay deals with PC9/ER cells. Kind of assay: Cell viability assay (CellTiter-Glo 2.0), erlotinib-resistant PC9/ER cells. It counts as cell-based. The conditions noted are these: Homo sapiens, PC-9/ER, 72 h drug treatment, read-out: Relative cell viability, IC50 PC9ER.
From the text: as §1, §2

The subject of the next assay is HCC827/GR cells. Kind of assay: Cell viability assay (CellTiter-Glo 2.0), gefitinib-resistant HCC827/GR cells. It is filed as cell-based, human. The conditions noted are these: Homo sapiens, HCC827, 72 h drug treatment, read-out: Relative cell viability, IC50 HCC827GR.
From the text: as §1
The human cell line HCC827 was purchased from the American Type Culture Collection (Manassas, VA), and the PC9 cell line was obtained from RIKEN Cell Bank (Ibaraki, Japan). […] Gefitinib-resistant cells were referred to as HCC827/GR. […] Osimertinib-resistant cells were referred to as HCC827/OR.
(§3) Cell viability assays were carried out by plating 1,000 cells per well of HCC827 or PC9 resistant cells, respectively, into white transparent-bottom 384-well plates. The cells were treated with each TKI across a 10-dose range from 1 nM to 10,000 nM. After 72 h of drug treatment, cell viability was measured using the CellTiter-Glo 2.0 assay (Promega, Madison, WI).
as §3

A further assay deals with HCC827/OR cells. Put plainly: Cell viability assay (CellTiter-Glo 2.0), osimertinib-resistant HCC827/OR cells. It is filed as cell-based, human. The conditions noted are these: Homo sapiens, HCC827, 72 h drug treatment, read-out: Relative cell viability, IC50 HCC827OR.
From the text: as §1, §2

Setting [1] is: Table 4, 72 h drug treatment, combinations of EGFR TKIs and inhibitor of Formula (I).
Setting [2] is: Table 4, combinations of EGFR TKIs and inhibitor of Formula (I).
[3] abbreviates: Table 2, 72 h drug treatment, EGFR TKI resistant cells, combination with EGFR TKI.
Setting [4] is: Table 2, EGFR TKI resistant cells, combination with EGFR TKI.

Among the data in patent US12421207B2 (CMG Pharmaceutical Co., Ltd., priority 2022, dated 2025) are IC50 values, retold here.

Where two headings read alike, the source gives them in different places.

Take `CN1CCC(CC#Cc2c(Oc3ccc(NC(=O)c4cn(C5CCOCC5)c(=O)n(-c5ccc(F)cc5)c4=O)cc3F)ccnc2N)CC1` [Example 60, N-(4-(2-amino-3-(3-(1-methylpiperidin-4-yl)prop-1-ynyl)pyridin-4-yloxy)-3-fluorophenyl)-3-(4-fluorophenyl)-2,4-dioxo-1-(tetrahydro-2H-pyran-4-yl)-1,2,3,4-tetrahydropyrimidine-5-carboxamide]: the IC50 in the assay with HCC827/ER cells (setting [1]), in the assay on PC9/ER cells (setting [2]), in the assay on HCC827/GR cells (setting [2]) and in the assay with HCC827/OR cells (setting [2]) was below 100 nM in each case.
`Cc1nc(Cn2cc(C(=O)Nc3ccc(Oc4ccnc(N)c4C#CC(C)(C)N4CCOCC4)c(F)c3)c(=O)n(-c3ccc(F)cc3)c2=O)cs1` [Example 39, N-(4-((2-amino-3-(3-methyl-3-morpholinobut-1-yn-1-yl)pyridin-4-yl)oxy)-3-fluorophenyl)-3-(4-fluorophenyl)-1-((2-methylthiazol-4-yl)methyl)-2,4-dioxo-1,2,3,4-tetrahydropyrimidine-5-carboxamide]: the IC50 in the assay with HCC827/ER cells (setting [1]), with PC9/ER cells (setting [2]), with HCC827/GR cells (setting [2]) and in the assay on HCC827/OR cells (setting [2]) was below 100 nM each time.
For the molecule `CC(C)n1cc(C(=O)Nc2ccc(Oc3ccnc(N)c3/C=C/C(=O)N3CCNCC3)c(F)c2)c(=O)n(-c2ccc(F)cc2)c1=O` [Example 3, (E)-N-(4-(2-amino-3-(3-oxo-3-(piperazin-1-yl)prop-1-enyl)pyridin-4-yloxy)-3-fluorophenyl)-3-(4-fluorophenyl)-1-isopropyl-2,4-dioxo-1,2,3,4-tetrahydropyrimidine-5-carboxamide], the IC50 with HCC827/ER cells (setting [3]) is below 100 nM; with PC9/ER cells (setting [4]), below 1000 nM; in the assay on HCC827/GR cells (setting [4]) it was below 100 nM; in the assay on HCC827/OR cells (setting [4]), below 100 nM.
As to `CN(C)C(=O)Cn1cc(C(=O)Nc2ccc(Oc3ccnc(N)c3C#CC(C)(C)N3CCOCC3)c(F)c2)c(=O)n(-c2ccc(F)cc2)c1=O` [Example 33, N-(4-((2-amino-3-(3-methyl-3-morpholinobut-1-yn-1-yl)pyridin-4-yl)oxy)-3-fluorophenyl)-1-(2-(dimethylamino)-2-oxoethyl)-3-(4-fluorophenyl)-2,4-dioxo-1,2,3,4-tetrahydropyrimidine-5-carboxamide], the IC50 in the assay with HCC827/ER cells (setting [1]), in the assay on PC9/ER cells (setting [2]), in the assay with HCC827/GR cells (setting [2]) and in the assay on HCC827/OR cells (setting [2]) was below 1000 nM throughout.
For `CC(C)n1cc(C(=O)Nc2ccc(Oc3ccnc(N)c3C#CC3CCN(C)CC3)c(F)c2)c(=O)n(-c2ccc(F)cc2)c1=O` [Example 23, N-(4-(2-amino-3-((1-methylpiperidin-4-yl)ethynyl)pyridin-4-yloxy)-3-fluorophenyl)-3-(4-fluorophenyl)-1-isopropyl-2,4-dioxo-1,2,3,4-tetrahydropyrimidine-5-carboxamide], the IC50 is below 100 nM in the assay on HCC827/ER cells (setting [3]), below 10 nM with PC9/ER cells (setting [4]), below 100 nM in the assay on HCC827/GR cells (setting [4]) and below 10 nM with HCC827/OR cells (setting [4]).
Take `CC(C)n1cc(C(=O)Nc2ccc(Oc3ccnc(N)c3-c3ccc(Oc4ccccc4)cc3)c(F)c2)c(=O)n(-c2ccc(F)cc2)c1=O` [Example 10]: the IC50 is below 1000 nM with HCC827/ER cells (setting [3]), below 100 nM with PC9/ER cells (setting [4]), below 1000 nM in the assay with HCC827/GR cells (setting [4]) and below 1000 nM in the assay with HCC827/OR cells (setting [4]).
Turning to `CC(C)(C#Cc1c(Oc2ccc(NC(=O)c3c[nH]c(=O)n(-c4ccc(F)cc4)c3=O)cc2F)ccnc1N)N1CCNCC1` [Example 52, N-(4-(2-amino-3-(3-methyl-3-(piperazin-1-yl)but-1-ynyl)pyridin-4-yloxy)-3-fluorophenyl)-3-(4-fluorophenyl)-2,4-dioxo-1,2,3,4-tetrahydropyrimidine-5-carboxamide], the IC50 with HCC827/ER cells (setting [1]) was below 10000 nM; with PC9/ER cells (setting [2]), below 10000 nM; in the assay on HCC827/GR cells (setting [2]) it was below 10000 nM; in the assay with HCC827/OR cells (setting [2]), above 10000 nM.
`CC(C)n1cc(C(=O)Nc2ccc(Oc3ccnc(N)c3C#CC3CCNCC3)c(F)c2)c(=O)n(-c2ccc(F)cc2)c1=O` [Example 15, N-(4-(2-amino-3-(piperidin-4-ylethynyl)pyridin-4-yloxy)-3-fluorophenyl)-3-(4-fluorophenyl)-1-isopropyl-2,4-dioxo-1,2,3,4-tetrahydropyrimidine-5-carboxamide]: the IC50 is below 100 nM with HCC827/ER cells (setting [3]), below 10 nM in the assay on PC9/ER cells (setting [4]), below 100 nM with HCC827/GR cells (setting [4]) and below 10 nM in the assay on HCC827/OR cells (setting [4]).
In the case of `CC(C)(C#Cc1c(Oc2ccc(NC(=O)c3cn(C4CCOCC4)c(=O)n(-c4ccc(F)cc4)c3=O)cc2F)ccnc1N)N1CCNCC1` [Example 58, N-(4-(2-amino-3-(3-methyl-3-(piperazin-1-yl)but-1-ynyl)pyridin-4-yloxy)-3-fluorophenyl)-3-(4-fluorophenyl)-2,4-dioxo-1-(tetrahydro-2H-pyran-4-yl)-1,2,3,4-tetrahydropyrimidine-5-carboxamide], the IC50 in the assay on HCC827/ER cells (setting [1]), in the assay on PC9/ER cells (setting [2]), in the assay on HCC827/GR cells (setting [2]) and with HCC827/OR cells (setting [2]) was below 1000 nM in each case.
Consider `CN(C)C(=O)Cn1cc(C(=O)Nc2ccc(Oc3ccnc(N)c3C#CCC3CCNCC3)c(F)c2)c(=O)n(-c2ccc(F)cc2)c1=O` [Example 38, N-(4-((2-amino-3-(3-(piperidin-4-yl)prop-1-yn-1-yl)pyridin-4-yl)oxy)-3-fluorophenyl)-1-(2-(dimethylamino)-2-oxoethyl)-3-(4-fluorophenyl)-2,4-dioxo-1,2,3,4-tetrahydropyrimidine-5-carboxamide], for which the IC50 with HCC827/ER cells (setting [1]), in the assay with PC9/ER cells (setting [2]), in the assay on HCC827/GR cells (setting [2]) and in the assay with HCC827/OR cells (setting [2]) was below 10000 nM in each case.
Take `Cn1nc(C(=O)Nc2ccc(Oc3ccnc(N)c3C#CCN3CCOCC3)c(F)c2)c(=O)n(-c2ccc(F)cc2)c1=O` [Example 49, N-(4-(2-amino-3-(3-morpholinoprop-1-ynyl)pyridin-4-yloxy)-3-fluorophenyl)-4-(4-fluorophenyl)-2-methyl-3,5-dioxo-2,3,4,5-tetrahydro-1,2,4-triazine-6-carboxamide]: the IC50 was below 10000 nM in the assay on HCC827/ER cells (setting [1]), below 1000 nM in the assay with PC9/ER cells (setting [2]), below 1000 nM with HCC827/GR cells (setting [2]) and below 10000 nM in the assay on HCC827/OR cells (setting [2]).
For the molecule `CC(C)(C#Cc1c(Oc2ccc(NC(=O)c3cn(C4CCOCC4)c(=O)n(-c4ccc(F)cc4)c3=O)cc2F)ccnc1N)N1CCOCC1` [Example 55, N-(4-(2-amino-3-(3-methyl-3-morpholinobut-1-ynyl)pyridin-4-yloxy)-3-fluorophenyl)-3-(4-fluorophenyl)-2,4-dioxo-1-(tetrahydro-2H-pyran-4-yl)-1,2,3,4-tetrahydropyrimidine-5-carboxamide], the IC50 was below 100 nM in the assay with HCC827/ER cells (setting [1]), below 1000 nM in the assay on PC9/ER cells (setting [2]), below 100 nM with HCC827/GR cells (setting [2]) and below 1000 nM in the assay on HCC827/OR cells (setting [2]).
In the case of `C=CCn1cc(C(=O)Nc2ccc(Oc3ccnc(N)c3C#CCC3CCNCC3)c(F)c2)c(=O)n(CC=C)c1=O` [Example 71, 1,3-dialyl-N-(4-(2-amino-3-(3-(piperidin-4-yl)prop-1-ynyl)pyridin-4-yloxy)-3-fluorophenyl)-2,4-dioxo-1,2,3,4-tetrahydropyrimidine-5-carboxamide], the IC50 with HCC827/ER cells (setting [1]), in the assay on PC9/ER cells (setting [2]), in the assay with HCC827/GR cells (setting [2]) and in the assay with HCC827/OR cells (setting [2]) was below 1000 nM throughout.
Consider `Cn1nc(C(=O)Nc2ccc(Oc3ccnc(N)c3C#CCC3CCNCC3)c(F)c2)c(=O)n(-c2ccc(F)cc2)c1=O` [Example 46, N-(4-((2-amino-3-(3-(piperidin-4-yl)prop-1-yn-1-yl)pyridin-4-yl)oxy)-3-fluorophenyl)-4-(4-fluorophenyl)-2-methyl-3,5-dioxo-2,3,4,5-tetrahydro-1,2,4-triazine-6-carboxamide], for which the IC50 in the assay on HCC827/ER cells (setting [1]) was below 10000 nM; in the assay with PC9/ER cells (setting [2]), below 10000 nM; with HCC827/GR cells (setting [2]), below 1000 nM; in the assay on HCC827/OR cells (setting [2]), below 10000 nM.
On to `CCCn1cc(-c2c(Oc3ccc(NC(=O)c4cn(C(C)C)c(=O)n(-c5ccc(F)cc5)c4=O)cc3F)ccnc2N)cn1` [Example 12, N-(4-(2-amino-3-(1-propyl-1H-pyrazol-4-yl)pyridine-4-yloxy)-3-fluorophenyl)-3-(4-fluorophenyl)-1-isopropyl-2,4-dioxo-1,2,3,4-tetrahydropyrimidine-5-carboxamide], for which the IC50 is below 100 nM with HCC827/ER cells (setting [3]), below 1000 nM with PC9/ER cells (setting [4]), below 100 nM in the assay with HCC827/GR cells (setting [4]) and below 10 nM in the assay with HCC827/OR cells (setting [4]).
